For series [1], the system named is Langendorff preparation. Particulars: cited from earlier work; for inhibition of VF: administered before or after ischaemia onset, Langendorff preparation.
The subject of series [2] is Rat isolated heart. The series is described as follows: Rat isolated heart, 30 min regional ischaemia (coronary ligation), VF incidence (Example 2). The conditions noted are these: for reduction of incidence of ischaemia-induced VF: 30 min regional ischaemia, test solutions 15 μM and 150 μM. Here is the method: Model Choice: • Rat isolated heart, 30 min regional ischaemia (coronary ligation) • High baseline susceptibility to VF • Scope for detection of VF suppression by drugs

Series [3] relates to anaesthetised rats, myocardial infarction.
Series [4] has as its system anaesthetised rats, induced infarction, VF. The conditions noted are these: for VF-free survival after 30 minutes: 2 mg/kg bolus and 0.5 mg/kg/min infusion, IV before induced infarction, control 0%.
Description: Method: • Randomized, blinded and fully powered trial • Groups of n=6 anaesthetised rats • Test solutions delivered by IV to rat tail vein before induced infarction
Series [5] has as its system arrhythmias which occur early after occlusion of the left coronary artery. As to the method:
Groups of female rats, each in the weight range of 200-300 g, were studied.
The protocol used followed that used in many previous studies seeking dose-related data for novel compounds and reference drugs.
Five minutes after the start of drug delivery the left main coronary artery was occluded (J Mol Cell Cardiol 19: 399-419 1987). This caused a region of ischaemia (verified by the occluded zone, OZ) which was maintained for the duration of the observation period (30 minutes) during which severe arrhythmias caused by the resultant cardiac ischaemia occur (J Mol Cell Cardiol 19: 399-419 1987).
This study was not randomized but was progressed from a low dose to a high dose.
Outcomes were evaluated versus a historical data base of 140 rats treated identically (0.8% saline infusion and coronary artery ligation).
Procedures: • From the ECG, the PR and QT and heart rate were determined. • From a femoral artery catheter, blood pressure (BP) was monitored. • Arrhythmic Score (AS) was determined by counting the number of ventricular premature beats (VPBs) and the occurrence of ventricular tachycardia (VT) and fibrillation (VF) (Cardiovasc Res 22: 656-665, 1988). • Occlusion Zone (OZ) was measured by weight (g) using a dye exclusion method (J Mol Cell Cardiol 19: 399-419 1987).

The test system of series [6] is pentobarbitone anaesthetized rats. Particulars: 60 mg/kg i.v. over 20 minutes. Here is the method: A study was carried out to assess tolerability in pentobarbitone anaesthetized rats.
Series [7] concerns pentobarbitone anaesthetized mice. Particulars: bolus dose of 100 mg/kg i.v. The source says: An initial toxicity study was undertaken in pentobarbitone anaesthetized mice.
For series [8], the system named is patients at high risk of VT or VF following myocardial infarction. Particulars: cited from earlier work.
Setting [9] is: LNO 3 mg/kg total dose i.v. over 20 min, group mean.
[10] abbreviates: LNO 10 mg/kg total dose i.v. over 20 min, group mean.
Setting [11] is: LNO 10 mg/kg total dose i.v. over 20 min, individual rat.
Where [12] appears, read: LNO 30 mg/kg total dose i.v. over 20 min, group mean.
[13] abbreviates: LNO 100 mg/kg total dose i.v. over 20 min, group mean.

Values joined by “and” are separate entries in the source; they are usually repeats but may differ in a detail not shown here. Equal entries are not always repeated. Where two headings read alike, the source gives them in different places.

In the case of `CC[N+]([O-])(CC)CC(=O)Nc1c(C)cccc1C` [LNO, lidocaine N-oxide], the “inhibition of VF” value in series [1] is given as “equi-effective”. Besides, the “dose-limiting bradycardia or PR interval elongation” value in series [1] is listed as “didn't induce”. In addition, the “effect on PR” value in series [2] is reported as “did not show any effect”. In addition, the “effect on heart rate” value in series [2] is given as “only a small effect”. Further, the “reduction of incidence of ischaemia-induced VF” value in series [2] (isolated rat heart) is listed as “equally as effective as lidocaine”. Moreover, in series [3] (anaesthetised rats, LNO directly to the bloodstream prior to myocardial infarction), the survival rate is given as 100%. The “signs of excessive reduction in contractile function, decreased heart rate, complete heart block or asystole” value in series [3] (rat, in vivo) is recorded as “no signs”. Moreover, the “VF-free survival after 30 minutes” value in series [4] worked out at 67%. The “effectiveness against VF” value in series [4] (anaesthetised rats, IV) was “effective”. Further, the “time post-infarction before a VF event” value in series [4] (anaesthetised rats, IV) was “longer time”. Also, the bradyarrhythmias entry in series [4] (rat, in vivo, iv) is “did not”. Further, in series [5] (3 mg/kg to 30 mg/kg i.v.), the “therapeutic window from the threshold effective dose” value is on record as “at least ten-fold”. In addition, the “AS (arrhythmia score)” value in series [5] (setting [9]) was 4.5; in series [5] (LNO 3 mg/kg total dose i.v. over 20 min, individual rat), 7 and 3 (2×) and 5; in series [5] (setting [10]), 1.67; in series [5] (setting [11]) it was 1 (2×) and 3; in series [5] (setting [12]) it was 2; in series [5] (setting [13]), 2.67. The “VF (ventricular fibrillation)” value in series [5] (setting [9]) is reported as 0.25 number of episodes; in series [5] (setting [11]) it was 0 number of episodes; in series [5] (setting [12]), 2 number of episodes; in series [5] (setting [13]), 0.33 number of episodes. For the same molecule, the “VT (ventricular tachycardia)” value in series [5] (setting [9]) was 7.75 number of episodes; in series [5] (setting [10]), 3 number of episodes; in series [5] (setting [12]), 22 number of episodes; in series [5] (setting [13]), 3.67 number of episodes. Further, in series [5] (LNO 100 mg/kg total dose i.v. over 20 min, individual rat), the “Occl 10’ BP (blood pressure)” value was “Dead”. For the same molecule, in series [5] (each tested dose: 3, 10, 30 and 100 mg/kg, 30 min regional ischaemia, vs historical controls), the “arrhythmia score (AS) versus control” value is on record as “significantly reduced”. In addition, the off-target actions entry in series [5] (highest dose of LNO, 100 mg/kg) is reported as “one death due to convulsion”. Also, in series [5] (rat, in vivo, iv), the “dose up to which no off-target effects are seen” value worked out at 30 mg/kg. In series [5] (regional ischaemia, i.v.), the “lowest dose at which antiarrhythmic activity is seen (threshold effective dose)” value is reported as 3 mg/kg. In addition, the figures for the “tolerability of the dose” value in series [6] and in series [7] were “tolerated” and “well tolerated”, respectively.

With `O=C(NCC1CCCCN1)c1cc(OCC(F)(F)F)ccc1OCC(F)(F)F` (centres unmarked) [flecainide], the “increase in the risk of mortality” value in series [8] is “three-fold”.

For the molecule `CCN(CC)CC(=O)Nc1c(C)cccc1C` [lidocaine, reference compound], the “inhibition of VF” value in series [1] is “equi-effective”. For the same molecule, in series [2] (15 μM, during 30 min ischaemia), the “PR interval versus control” value is recorded as “higher”. The “reduction of incidence of ischaemia-induced VF” value in series [2] (isolated rat heart) was “equally effective”. Further, in series [2] (isolated rat heart, conclusion), the “effect on PR” value is “did show an impact”. For the same molecule, the “VF-free survival after 30 minutes” value in series [4] came out at 67%. In series [4] (anaesthetised rats, IV), the bradyarrhythmias entry was “led to bradyarrhythmias” and the “effectiveness against VF” value is recorded as “effective”.

Values taken from patent US11266613B2 (priority 2017, dated 2022).
